Where two headings read alike, the source gives them in different places.
Columns and labels:
Human HDAC6 = biological target: T1, Human HDAC6 (Homo sapiens, UniProt Q9UBN7); experiment: HDAC6 inhibition assay (fluorogenic p53 peptide substrate); format: biochemical
T1 construct: Full length with N-terminal GST tag, MW=159 kDa; GST (N); host or cells: Sf9 insect cells (baculovirus)
T1 sequence (Q9UBN7 1-1215): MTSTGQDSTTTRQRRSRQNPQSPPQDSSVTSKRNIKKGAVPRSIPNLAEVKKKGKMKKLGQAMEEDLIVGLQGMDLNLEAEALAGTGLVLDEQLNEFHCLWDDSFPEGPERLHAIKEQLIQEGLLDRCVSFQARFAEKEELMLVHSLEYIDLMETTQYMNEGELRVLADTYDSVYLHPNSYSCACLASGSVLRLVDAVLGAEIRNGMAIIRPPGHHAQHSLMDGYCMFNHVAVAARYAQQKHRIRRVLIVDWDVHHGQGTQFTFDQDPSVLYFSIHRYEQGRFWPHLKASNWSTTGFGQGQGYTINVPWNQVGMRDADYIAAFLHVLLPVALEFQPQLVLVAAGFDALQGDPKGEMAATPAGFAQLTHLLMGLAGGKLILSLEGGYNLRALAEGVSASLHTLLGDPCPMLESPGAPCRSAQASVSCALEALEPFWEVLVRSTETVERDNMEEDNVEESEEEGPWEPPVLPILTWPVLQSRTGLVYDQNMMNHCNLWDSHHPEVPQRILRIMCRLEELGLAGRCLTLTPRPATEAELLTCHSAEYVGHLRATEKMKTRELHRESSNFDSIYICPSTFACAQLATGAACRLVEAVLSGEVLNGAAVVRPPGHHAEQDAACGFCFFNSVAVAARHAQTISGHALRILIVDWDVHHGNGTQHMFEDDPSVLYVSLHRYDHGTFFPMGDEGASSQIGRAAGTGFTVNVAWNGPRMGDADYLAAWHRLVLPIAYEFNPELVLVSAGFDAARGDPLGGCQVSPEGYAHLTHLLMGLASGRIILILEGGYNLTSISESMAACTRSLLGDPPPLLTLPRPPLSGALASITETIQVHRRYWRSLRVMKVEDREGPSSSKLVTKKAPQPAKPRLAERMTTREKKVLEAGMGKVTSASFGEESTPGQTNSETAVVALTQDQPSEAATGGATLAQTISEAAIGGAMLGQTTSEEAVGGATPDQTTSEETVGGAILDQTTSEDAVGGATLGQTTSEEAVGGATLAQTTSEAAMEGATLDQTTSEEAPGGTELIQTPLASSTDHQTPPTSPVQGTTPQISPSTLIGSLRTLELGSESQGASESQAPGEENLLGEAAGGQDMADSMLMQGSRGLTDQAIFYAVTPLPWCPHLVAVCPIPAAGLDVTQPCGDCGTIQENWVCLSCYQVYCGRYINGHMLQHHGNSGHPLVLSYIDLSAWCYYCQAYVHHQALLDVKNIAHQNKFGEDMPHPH
Protocol: (§1) The HDAC1, 2, 4, 5, 6, 7, 8, 9, 10, and 11 assays used isolated recombinant human protein; HDAC3/NcoR2 complex was used for the HDAC3 assay. Substrate for HDAC1, 2, 3, 6, 10, and 11 assays is a fluorogenic peptide from p53 residues 379-382 (RHKKAc); substrate for HDAC8 is fluorogenic diacyl peptide based on residues 379-382 of p53 (RHKAcKAc). Acetyl-Lys(trifluoroacetyl)-AMC substrate was used for HDAC4, 5, 7, and 9 assays. Compounds were dissolved in DMSO and tested in 10-dose IC50 mode with 3-fold serial dilution starting at 30 μM. Control Compound Trichostatin A (TSA) was tested in a 10-dose IC50 with 3-fold serial dilution starting at 5 μM. IC50 values were extracted by curve-fitting the dose/response slopes. Assays were performed in duplicate and IC50 values are an average of data from both experiments.
Human HDAC6 (GenBank Accession No. BC069243): Full length with N-terminal GST tag, MW=159 kDa, expressed by baculovirus expression system in Sf9 cells. Enzyme is in 50 mM Tris-HCl, pH 8.0, 138 mM NaCl, 20 mM glutathione, and 10% glycerol, and stable for >6 months at −80° C. Purity is >90% by SDS-PAGE. Specific Activity is 50 U/μg, where one U=1 pmol/min under assay condition of 25 mM Tris/Cl, pH8.0, 137 mM NaCl, 2.7 mM KCl, 1 mM MgCl2, and 0.1 mg/ml BSA, 30 μM HDAC substrate, and 5 ng/μl HDAC6, incubation for 60 min at 30° C.
Substrate for HDAC1 and HDAC6: Acetylated peptide substrate for HDAC, based on residues 379-382 of p53 (Arg-His-Lys-Lys(Ac)), a site of regulatory acetylation by the p300 and CBP acetyltransferases (lysines 381, 382)1-6, is the best for HDAC from among a panel of substrates patterned on p53, histone H3 and histone H4 acetylation sites7.
Reaction Buffer: 50 mM Tris-HCl, pH 8.0, 137 mM NaCl, 2.7 mM KCl, 1 mM MgCl2, 1 mg/ml BSA.
HDAC6: 12.6 nM HDAC6 and 50 μM HDAC substrate are in the reaction buffer and 1% DMSO final. Incubate for 2 hours at 30° C.
All IC50 values are automatically calculated using the GraphPad Prism version 5 and Equation of Sigmoidal dose-response (variable slope): Y=Bottom+(Top−Bottom)/(1+10^((Log EC50−X)*HillSlope)), where X is the logarithm of concentration, Y is the response, Y starts at Bottom and goes to Top with a sigmoid shape. In most cases, “Bottom” is set 0, and “Top” is set “less than 120%”. This is identical to the “four parameter logistic equation”. IC50 curves also are drawn using the GraphPad Prism, and IC50 values and Hill slopes are provided.
HDAC Activity Assays: HDAC assay is performed using fluorescently-labeled acetylated substrate, which comprises an acetylated lysine side chain. After incubation with HDAC, deacetylation of the substrate sensitizes the substrate such that, in a second step, treatment with the detection enzyme produces a fluorophore. HDACs 1 and 6 were expressed as full length fusion proteins. Purified proteins were incubated with 50 μM fluorescently-labeled acetylated peptide substrate and test compound for 2 hours at RT in HDAC assay buffer containing 50 mM Tris-HCl (pH 8.0), 137 mM NaCl, 2.7 mM KCl, 1 mM MgCl2, 1% DMSO, and 1% BSA.
Reactions were terminated by the addition of the Developer after 2 hours, and the development of fluorescence signal, which was relative to the amount of deacetylated peptide, was monitored by time-course measurement of EnVision (PerkinElmer). The HDAC activity was estimated from the slope of time-course measurement of the fluorescence intensity. The slope of no-enzyme control (substrate alone) was served as background, and % Enzyme activity was calculated using background-subtracted slope of no inhibitor control (DMSO) as 100% activity.

HDAC5 = HDAC5 (Homo sapiens, UniProt Q9UQL6); experiment: HDAC5 isoform selectivity assay; format: biochemical; conditions: Table 2 isoform selectivity; read-out: HDAC Inhibition (IC50 uM) isoform 5
Chain of HDAC5 (Q9UQL6 whole entry, canonical isoform): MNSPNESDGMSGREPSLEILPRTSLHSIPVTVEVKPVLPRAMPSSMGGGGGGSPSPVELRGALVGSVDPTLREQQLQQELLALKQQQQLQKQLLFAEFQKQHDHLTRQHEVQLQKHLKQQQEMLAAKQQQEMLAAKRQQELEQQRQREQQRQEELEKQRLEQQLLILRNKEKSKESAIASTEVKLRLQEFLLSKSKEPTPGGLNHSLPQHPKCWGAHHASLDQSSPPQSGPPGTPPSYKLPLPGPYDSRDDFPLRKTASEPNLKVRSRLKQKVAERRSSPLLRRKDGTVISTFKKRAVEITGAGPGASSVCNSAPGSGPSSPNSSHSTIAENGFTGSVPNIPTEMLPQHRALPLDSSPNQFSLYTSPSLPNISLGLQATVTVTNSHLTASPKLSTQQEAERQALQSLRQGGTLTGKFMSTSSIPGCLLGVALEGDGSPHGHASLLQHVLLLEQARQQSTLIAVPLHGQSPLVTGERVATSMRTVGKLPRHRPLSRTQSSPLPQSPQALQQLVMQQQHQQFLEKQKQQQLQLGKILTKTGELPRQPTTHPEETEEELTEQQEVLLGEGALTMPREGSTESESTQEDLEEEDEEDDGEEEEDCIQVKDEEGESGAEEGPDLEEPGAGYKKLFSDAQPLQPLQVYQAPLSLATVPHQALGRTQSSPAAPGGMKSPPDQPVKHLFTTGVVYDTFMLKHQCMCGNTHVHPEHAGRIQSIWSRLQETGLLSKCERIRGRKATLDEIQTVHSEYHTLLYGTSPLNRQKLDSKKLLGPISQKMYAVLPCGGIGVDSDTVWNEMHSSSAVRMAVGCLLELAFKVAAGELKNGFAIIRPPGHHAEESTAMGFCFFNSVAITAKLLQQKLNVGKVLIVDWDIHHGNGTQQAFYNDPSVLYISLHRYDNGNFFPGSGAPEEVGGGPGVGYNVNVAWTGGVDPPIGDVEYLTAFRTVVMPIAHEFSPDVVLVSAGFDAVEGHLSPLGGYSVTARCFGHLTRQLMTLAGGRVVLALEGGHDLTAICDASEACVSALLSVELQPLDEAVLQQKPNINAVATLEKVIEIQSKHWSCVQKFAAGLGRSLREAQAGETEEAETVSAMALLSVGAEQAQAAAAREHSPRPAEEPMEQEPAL
Protocol: as §1

[1] = Table 1, performed by Reaction Biology Corporation, read-out: HDAC isoform IC50 (nM) 6
[2] = Table 2 isoform selectivity, read-out: HDAC Inhibition (IC50 uM) isoform 6

Structure (SMILES)	IC50 (Human HDAC6; [1]) [nM]	IC50 (Human HDAC6; [2]) [nM]	IC50 (HDAC5) [µM]
Cn1c(NCc2ccc(C(=O)NO)cc2)nc2ccccc21 [II-ING-13, N-Hydroxy-4-(((1-methyl-1H-benzo[d]imidazol-2-yl)amino)methyl)benzamide]	11	9	1.96
O=C(NO)c1ccc(CN2CCc3ccc(Cl)cc32)cc1 [II-ING-6, 4-((6-Chloroindolin-1-yl)methyl)-N-hydroxybenzamide]	11.5	9	2.7
O=C(NO)c1ccc(CN2CCc3cc(F)ccc32)cc1 [II-ING-42, 4-((5-Fluoroindolin-1-yl)methyl)-N-hydroxybenzamide]	13.1		
O=C(NO)c1ccc(CN2CCc3ccccc32)cc1 [II-ING-44, N-Hydroxy-4-(indolin-1-ylmethyl)benzamide]	26.8		
O=C(NO)c1ccc(CN2C(=O)C(F)(F)c3ccccc32)cc1 [II-ING-66, 4-((3,3-Difluoro-2-oxoindolin-1-yl)methyl)-N-hydroxybenzamide]	4.1		
O=C(NO)c1ccc(CN2CCc3cc(Cl)ccc32)cc1 [II-ING-39, 4-((5-Chloroindolin-1-yl)methyl)-N-hydroxybenzamide]	21.5		
COc1ccc2c(c1)CCN2Cc1ccc(C(=O)NO)cc1 [II-ING-49, N-Hydroxy-4-((5-methoxyindolin-1-yl)methyl)benzamide]	11.5		
O=C(NO)c1ccc(CN2CCc3ccc(F)cc32)cc1 [II-ING-41, 4-((6-Fluoroindolin-1-yl)methyl)-N-hydroxybenzamide]	16.7	4	1.39

— patent publication US10934255B2, “Nrf and HIF activators/HDAC inhibitors and therapeutic methods using the same” (THE BOARD OF TRUSTEES OF THE UNIVERSITY OF ILLINOIS, priority 2017, dated 2021)
